Reference: patent US10227357B2, “Compounds and methods for kinase modulation, and indications therefor” (Plexxikon Inc., priority 2012, dated 2019)

How the values were obtained:
[1] = biological target: T1, c-kit kinase (Homo sapiens, UniProt P10721); assay: c-Kit biochemical assay, AlphaScreen, 10 μM ATP; details: c-kit biochemical inhibitory activity; read-out: Biochemical activity (IC50 μM) Kit
T1 construct: The c-kit (or kinase domain thereof) is an active kinase in AlphaScreen; poly-Histidine tag (in-house protein only) (cleaved yes); host or cells: E. coli BL21(DE3)RIL, co-expressed with PTP1B
T1 sequence (P10721 26-976): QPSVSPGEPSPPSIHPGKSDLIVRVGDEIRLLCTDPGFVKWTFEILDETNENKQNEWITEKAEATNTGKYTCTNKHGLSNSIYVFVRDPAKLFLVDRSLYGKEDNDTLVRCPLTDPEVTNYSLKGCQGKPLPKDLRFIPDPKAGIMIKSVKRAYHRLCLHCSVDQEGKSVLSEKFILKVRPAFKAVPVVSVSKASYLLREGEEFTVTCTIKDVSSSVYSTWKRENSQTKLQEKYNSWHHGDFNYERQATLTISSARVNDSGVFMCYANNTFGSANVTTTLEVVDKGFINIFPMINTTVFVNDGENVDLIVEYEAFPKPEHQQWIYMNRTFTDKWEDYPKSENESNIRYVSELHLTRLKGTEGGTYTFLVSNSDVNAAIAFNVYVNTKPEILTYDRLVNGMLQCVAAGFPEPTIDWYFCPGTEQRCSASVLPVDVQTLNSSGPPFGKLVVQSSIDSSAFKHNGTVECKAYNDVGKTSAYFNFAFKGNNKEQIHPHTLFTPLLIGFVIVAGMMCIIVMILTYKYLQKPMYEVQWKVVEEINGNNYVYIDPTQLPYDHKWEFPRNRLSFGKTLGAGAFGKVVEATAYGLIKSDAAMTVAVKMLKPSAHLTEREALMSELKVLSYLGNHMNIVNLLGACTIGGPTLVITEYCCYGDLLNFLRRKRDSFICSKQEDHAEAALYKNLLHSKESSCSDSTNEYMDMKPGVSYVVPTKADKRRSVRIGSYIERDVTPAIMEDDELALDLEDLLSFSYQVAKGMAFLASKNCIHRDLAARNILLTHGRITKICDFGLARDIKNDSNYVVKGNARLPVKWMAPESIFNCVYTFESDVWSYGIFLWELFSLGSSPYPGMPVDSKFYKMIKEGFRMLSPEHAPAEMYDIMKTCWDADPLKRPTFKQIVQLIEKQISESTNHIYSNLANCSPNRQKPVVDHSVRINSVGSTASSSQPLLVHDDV
How it was run: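 His-tagged c-Kit expressed in E. coli with co-expressed PTP1B (dephosphorylated), tag removed; 0.1 ng per reaction with biotinylated-peptide substrate in 50 mM HEPES pH 7.2, 5 mM MgCl2, 5 mM MnCl2, 5% DMSO, 10 μM ATP, 1 h at room temperature. Phosphorylation detected by AlphaScreen (streptavidin donor, PY20 acceptor beads); IC50 from 8-point 1:3 dilution series.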

[2] = biological target: T2, c-kit mutant D816V (Homo sapiens, UniProt P10721, D816V/DEL694-753); assay: c-Kit mutant D816V biochemical assay, AlphaScreen; details: c-kit D816V biochemical inhibitory activity; read-out: Biochemical activity (IC50 μM) Kit D816V
T2 construct: residues 551-934, kinase insertion domain residues 694-753 deleted; 6x-histidine (N); made in house; host or cells: E. coli Arctic Express (DE3) RIL (Stratagene)
T2 sequence (P10721 with tags, fused parts or gaps DEL694-753/D816V): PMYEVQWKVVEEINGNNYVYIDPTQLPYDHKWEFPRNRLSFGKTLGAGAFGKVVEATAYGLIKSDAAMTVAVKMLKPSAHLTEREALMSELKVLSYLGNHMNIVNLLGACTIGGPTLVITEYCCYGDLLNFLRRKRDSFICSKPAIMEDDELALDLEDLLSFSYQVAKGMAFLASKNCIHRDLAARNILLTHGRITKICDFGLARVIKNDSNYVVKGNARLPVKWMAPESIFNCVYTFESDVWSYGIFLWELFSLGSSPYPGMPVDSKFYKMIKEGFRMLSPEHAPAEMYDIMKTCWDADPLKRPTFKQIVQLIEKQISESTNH
How it was run: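 Eight-point, threefold compound series incubated 30 min at room temperature with E. coli-produced D816V kinase, 10 μM ATP, Mg2+/Mn2+ HEPES buffer pH 7.2 and 5% DMSO. After EDTA stop, streptavidin and anti-phosphotyrosine (PY20) AlphaScreen beads gave the read-out, and IC50 was fitted from the concentration–signal curve.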

Row | SMILES | IC50 [1] [µM] | IC50 [2] [µM]
1 | CS(=O)(=O)Nc1ccc(-c2ncnc3[nH]c(-c4ccc(F)cc4)cc23)c(F)c1 [P-0398, N-[3-fluoro-4-[6-(4-fluorophenyl)-7H-pyrrolo[2,3-d]pyrimidin-4-yl]phenyl]methanesulfonamide] | 0.0001 to 1 | 0.0001 to 1
2 | Cc1cc2c(-c3ccc(NS(=O)(=O)c4ccc(Cl)cc4F)cc3F)ncnc2[nH]1 [P-0352, 4-chloro-2-fluoro-N-[3-fluoro-4-(6-methyl-7H-pyrrolo[2,3-d]pyrimidin-4-yl)phenyl]benzenesulfonamide] | 0.0001 to 1 | 1 to 10
3 | COc1ccc(CNC(=O)N2CCN(c3ncnc4[nH]c(-c5ccc(F)cc5)cc34)CC2)cc1 [P-0157, 4-[6-(4-fluorophenyl)-7H-pyrrolo[2,3-d]pyrimidin-4-yl]-N-[(4-methoxyphenyl)methyl]piperazine-1-carboxamide] | 10 to 200 | 10 to 200
4 | CCc1ccc(S(=O)(=O)NC2CCN(c3ncnc4[nH]ccc34)CC2)cc1 [P-0525, 4-ethyl-N-[1-(7H-pyrrolo[2,3-d]pyrimidin-4-yl)-4-piperidyl]benzenesulfonamide] | 10 to 200 | 10 to 200
5 | [2H]C([2H])([2H])Oc1cccc([C@H](C)NC(=O)N2CCN(c3ncnc4[nH]c(-c5ccc(F)cc5)cc34)CC2)c1 [P-0015, 4-[6-(4-fluorophenyl)-7H-pyrrolo[2,3-d]pyrimidin-4-yl]-N-[(1S)-1-[3-(trideuteriomethoxy)phenyl]ethyl]piperazine-1-carboxamide] | 1 to 10 | 0.0001 to 1
6 | O=C(NCc1ccc(F)cc1)N1CCN(c2ncnc3[nH]ccc23)CC1 [P-0182, N-[(4-fluorophenyl)methyl]-4-(7H-pyrrolo[2,3-d]pyrimidin-4-yl)piperazine-1-carboxamide] | 10 to 200 | 10 to 200
7 | COc1cc2c(-c3ccc(NS(=O)(=O)N4CCCC4)cc3F)ncnc2cc1OCCCN1CCCCC1 [P-0253, N-[3-fluoro-4-[6-methoxy-7-[3-(1-piperidyl)propoxy]quinazolin-4-yl]phenyl]pyrrolidine-1-sulfonamide] | 1 to 10 | 0.0001 to 1
8 | Cc1nn(C)cc1-c1cc2ncnc(N3CCN(C(=O)N[C@@H](C)c4cccc(Cl)c4)[C@H](C)C3)c2s1 [P-0591, (2R)-N-[(1S)-1-(3-chlorophenyl)ethyl]-4-[6-(1,3-dimethylpyrazol-4-yl)thieno[3,2-d]pyrimidin-4-yl]-2-methyl-piperazine-1-carboxamide] | 10 to 200 | 0.0001 to 1
9 | CS(=O)(=O)Nc1ccc(-c2ncnc3[nH]c(-c4ccc(F)cc4)cc23)c(F)c1F [P-0353, N-[2,3-difluoro-4-[6-(4-fluorophenyl)-7H-pyrrolo[2,3-d]pyrimidin-4-yl]phenyl]methanesulfonamide] | 1 to 10 | 0.0001 to 1
10 | O=C(NS(=O)(=O)c1ccc(Cl)cc1)N1CCN(c2ncnc3[nH]c(-c4ccc(F)cc4)cc23)CC1 [P-0098, N-(4-chlorophenyl)sulfonyl-4-[6-(4-fluorophenyl)-7H-pyrrolo[2,3-d]pyrimidin-4-yl]piperazine-1-carboxamide] | 1 to 10 | 1 to 10
11 | C[C@H](NC(=O)N1CCN(c2ncnc3[nH]c(-c4cnn(C)c4)cc23)C[C@H]1C)c1ccc(Cl)cc1 [P-0717, (2R)-N-[(1S)-1-(4-chlorophenyl)ethyl]-2-methyl-4-[6-(1-methylpyrazol-4-yl)-7H-pyrrolo[2,3-d]pyrimidin-4-yl]piperazine-1-carboxamide] | 1 to 10 | 0.0001 to 1
12 | N#Cc1ccc(-c2cc3c(N4CCN(C(=O)Nc5ccc(OC(F)(F)F)cc5)CC4)ncnc3[nH]2)cc1 [P-0086, 4-[6-(4-cyanophenyl)-7H-pyrrolo[2,3-d]pyrimidin-4-yl]-N-[4-(trifluoromethoxy)phenyl]piperazine-1-carboxamide] | 1 to 10 | 0.0001 to 1
13 | Cc1cc2c(-c3ccc(S(=O)(=O)Nc4ccc(F)cc4)c(F)c3)ncnc2[nH]1 [P-0343, 2-fluoro-N-(4-fluorophenyl)-4-(6-methyl-7H-pyrrolo[2,3-d]pyrimidin-4-yl)benzenesulfonamide] | 10 to 200 | 1 to 10
14 | C[C@H](NC(=O)N1CCN(c2ncnc3[nH]c(-c4ccc(F)cc4)cc23)CC1(C)C)c1cccc(Cl)c1 [P-0008, N-[(1S)-1-(3-chlorophenyl)ethyl]-4-[6-(4-fluorophenyl)-7H-pyrrolo[2,3-d]pyrimidin-4-yl]-2,2-dimethyl-piperazine-1-carboxamide] | 1 to 10 | 0.0001 to 1
15 | Cc1cc2c(N3CCN(C(=O)N[C@@H](C)c4cccc(OC(F)F)c4)C(C)(C)C3)ncnc2[nH]1 [P-0645, N-[(1S)-1-[3-(difluoromethoxy)phenyl]ethyl]-2,2-dimethyl-4-(6-methyl-7H-pyrrolo[2,3-d]pyrimidin-4-yl)piperazine-1-carboxamide] | 10 to 200 | 1 to 10
16 | CS(=O)(=O)Nc1ccc(-c2ncnc3cc(C4=CCN(C(=O)N5CCOCC5)CC4)sc23)cc1 [P-0555, N-[4-[6-[1-(morpholine-4-carbonyl)-3,6-dihydro-2H-pyridin-4-yl]thieno[3,2-d]pyrimidin-4-yl]phenyl]methanesulfonamide] | 0.0001 to 1 | 0.0001 to 1
17 | C[C@H](NC(=O)N1CCN(c2ncnc3[nH]c(-c4ccc(Cl)cc4)cc23)C[C@H]1C)c1ccc(Cl)cc1 [P-0020, (2R)-N-[(1S)-1-(4-chlorophenyl)ethyl]-4-[6-(4-chlorophenyl)-7H-pyrrolo[2,3-d]pyrimidin-4-yl]-2-methyl-piperazine-1-carboxamide] | 1 to 10 | 1 to 10
18 | Cc1nn(C)cc1-c1cc2ncnc(C3CCN(C(=O)N[C@@H](C)c4ccc(F)cc4)CC3)c2s1 [P-0603, 4-[6-(1,3-dimethylpyrazol-4-yl)thieno[3,2-d]pyrimidin-4-yl]-N-[(1S)-1-(4-fluorophenyl)ethyl]piperidine-1-carboxamide] | 10 to 200 | 1 to 10
19 | Cc1nn(C)cc1-c1cc2ncnc(C3CCN(C(=O)NCc4ccc(F)cc4)CC3)c2s1 [P-0604, 4-[6-(1,3-dimethylpyrazol-4-yl)thieno[3,2-d]pyrimidin-4-yl]-N-[(4-fluorophenyl)methyl]piperidine-1-carboxamide] | 1 to 10 | 0.0001 to 1
20 | Nc1ccc(-c2ncnc3[nH]c(-c4ccc(F)cc4)cc23)cc1 [P-0416, 4-[6-(4-fluorophenyl)-7H-pyrrolo[2,3-d]pyrimidin-4-yl]aniline] | 0.0001 to 1 | 0.0001 to 1
21 | CCc1ccc(S(=O)(=O)Nc2ccc(-c3ncnc4[nH]c(C)cc34)cc2)cc1 [P-0315, 4-ethyl-N-[4-(6-methyl-7H-pyrrolo[2,3-d]pyrimidin-4-yl)phenyl]benzenesulfonamide] | 1 to 10 | 0.0001 to 1
22 | COc1ccc(S(=O)(=O)Nc2ccc(-c3ncnc4cc(OCCCN5CCCCC5)c(OC)cc34)c(F)c2)cc1 [P-0255, N-[3-fluoro-4-[6-methoxy-7-[3-(1-piperidyl)propoxy]quinazolin-4-yl]phenyl]-4-methoxy-benzenesulfonamide] | 0.0001 to 1 | 0.0001 to 1
23 | CCc1ccc(S(=O)(=O)NC2CCN(c3ncnc4[nH]c(C)cc34)CC2)s1 [P-0730, 5-ethyl-N-[1-(6-methyl-7H-pyrrolo[2,3-d]pyrimidin-4-yl)-4-piperidyl]thiophene-2-sulfonamide] | 0.0001 to 1 | 0.0001 to 1
24 | COCCOc1cc2ncnc(-c3ccc(NS(=O)(=O)c4cccc(F)c4)cc3F)c2cc1OCCOC [P-0260, N-[4-[6,7-bis(2-methoxyethoxy)quinazolin-4-yl]-3-fluoro-phenyl]-3-fluoro-benzenesulfonamide] | 1 to 10 | 0.0001 to 1
25 | CNC(=O)c1cccc(-c2cc3c(N4CCN(C(=O)NCc5ccc(F)cc5)CC4)ncnc3[nH]2)c1 [P-0081, N-[(4-fluorophenyl)rnethyl]-4-[6-[3-(methylcarbamoyl)phenyl]-7H-pyrrolo[2,3-d]pyrimidin-4-yl]piperazine-1-carboxamide] | 1 to 10 | 0.0001 to 1
26 | Cc1nn(C)c(C)c1-c1cc2ncnc(N3CCN(C(=O)NCc4ccc(F)cc4)CC3)c2s1 [P-0618, N-[(4-fluorophenyl)methyl]-4-[6-(1,3,5-trimethylpyrazol-4-yl)thieno[3,2-d]pyrimidin-4-yl]piperazine-1-carboxamide] | 1 to 10 | 1 to 10
27 | COc1ccc(S(=O)(=O)N2CCN(c3ncnc4[nH]ccc34)CC2)cc1 [P-0217, 4-[4-(4-methoxyphenyl)sulfonylpiperazin-1-yl]-7H-pyrrolo[2,3-d]pyrimidine] | 1 to 10 | 10 to 200
28 | CS(=O)(=O)Nc1cccc(-c2cc3c(N4CCN(C(=O)Nc5ccc(OC(F)(F)F)cc5)CC4)ncnc3[nH]2)c1 [P-0119, 4-[6-[3-(methanesulfonamido)phenyl]-7H-pyrrolo[2,3-d]pyrimidin-4-yl]-N-[4-(trifluoromethoxy)phenyl]piperazine-1-carboxamide] | 0.0001 to 1 | 1 to 10
29 | CCOc1ccc(NC(=O)N2CCN(c3ncnc4[nH]c(-c5ccc(Cl)cc5)cc34)CC2)cc1 [P-0214, 4-[6-(4-chlorophenyl)-7H-pyrrolo[2,3-d]pyrimidin-4-yl]-N-(4-ethoxyphenyl)piperazine-1-carboxamide] | 0.0001 to 1 | 0.0001 to 1
